Literature values, collected in patent publication US20040202714A1, “Oral pharmaceutical composition” (Daiichi Suntory Pharma Co., Ltd., priority 1999, published 2004).

Key:
[1] = system: methicillin-sensitive Staphylococcus aureus (MSSA)
[2] = system: penicillin-resistant pneumococci (PRSP)
Haemophilus influenzae = settings: gram-negative bacteria such as Haemophilus influenzae
genus Bacteroides = settings: anaerobic bacteria such as the genus Bacteroides
Porphyromonas gingivalis = settings: pathogenic bacteria of periodontis
[3] = system: bacterial strains from dental infectious diseases; settings: increasingly resistant strains from dental infectious diseases

In the case of `C[C@@H](O)[C@H]1C(=O)N2C(C(=O)O)=C([C@H]3CCCO3)S[C@H]12` [Compound 1, sodium (+)-(5R, 6S)-6-[(R)-1-hydroxyethyl]-7-oxo-3-[(R)-2-tetrahydrofuryl]4-thia-1-azabicyclo [3.2.0] hept-2-ene-2-carboxylate 5/2 hydrate], the antibacterial activity [1] is given as “potent antibacterial activity”, the antibacterial activity (Streptococcus pyrogenes) is given as “potent antibacterial activity” and the antibacterial activity (Streptococcus pneumoniae) is given as “potent antibacterial activity”. The antibacterial activity [2] was “potent antibacterial activity”, the antibacterial activity (oral staphylococci) was “potent antibacterial activity” and the antibacterial activity (enterococci) was “potent antibacterial activity”. The antibacterial spectrum (Haemophilus influenzae) was “wide antibacterial spectrum”, the antibacterial spectrum (genus Bacteroides) was “wide antibacterial spectrum” and the antibacterial activity (Porphyromonas gingivalis) was “potent antibacterial activity”. The antibacterial activity [3] was “potent antibacterial activity”.
